# In publication PMC9166766 (Experimental & Molecular Medicine, 2022):
# No end group written: not given here.
# Legend:
# [1] = tested on: CNAβ2 (calcineurin catalytic subunit); assay: Mammalian two-hybrid assay (VP16 AD-CNAβ2 and GAL4 DBD-peptides, pG5-luc) in HEK293T cells; type: cell-based; details: for interaction with / binding affinity to CNA (mammalian two-hybrid): CNAβ2, 24 h, repeated three times
# Description: (§1) To measure the transcriptional activity of NFAT, we cotransfected Jurkat T cells with GST-tagged peptides and NFAT-luc by electroporation. After 24 h, we pretreated the cells with 0.5 μM FK506 for 1 h and then treated them with 40 nM PMA and 1 μM ionomycin for 8 h. For the mammalian two-hybrid assay, we cotransfected HEK293T cells with GAL4 DBD-tagged CABIN1, VIVIT, chimeric and substituted peptides, VP16 activation domain-tagged CNAβ2, and pG5-luc (luciferase reporter plasmid containing the GAL4-responsive promoter) for 24 h. We lysed the harvested cells with a luciferase assay lysis buffer (17 mM KH2PO4, 183 mM K2HPO4, pH 7.8, 0.2% [v/v] Triton X-100) and sonicated them briefly. We measured luciferase activity for each cell lysate using an Infinite M200 (Tecan, Männedorf, Switzerland). In addition, we confirmed the expression level of the transfected proteins by Western blotting.
# A mammalian two-hybrid assay using these peptides was performed (bottom). The compositions of the transfected DNA are described in Supplementary Fig. 1a–c. All experiments were repeated three times and are presented as the mean ± standard deviation. […] SE short exposure, LE long exposure, NC negative control, WT wild-type.
# (§2) NC negative control, WT wild-type.
# [2] = tested on: CNAβ2 (calcineurin catalytic subunit); assay: Immunoprecipitation assay of Flag-CNAβ2 and tagged peptides in HEK293T cells; type: cell-based
# From the text: as §2
# (§3) RU response units, NC negative control.
# (§4) (1 picture or pasted object on this page, not shown here)
# [3] = tested on: CNAβ2 (calcineurin catalytic subunit); assay: In vitro His-pulldown assay of GST-tagged peptides with His-tagged CNA; type: binding; details: IP150 buffer with 0.5 mM EDTA
# Description: (§5) GST-tagged peptides and His-tagged CNAα and β2 were expressed in Escherichia coli BL21(DE3)pLysS. When the OD600 reached 0.5, we treated the bacteria with IPTG (0.1 mM overnight at 18 °C or 1 mM for 4 h at 37 °C). We purified the proteins as described previously. We performed a His-pulldown assay with 0.5 ml of IP150 buffer with 0.5 mM EDTA. We mixed His-tagged CNA with GST-tagged peptides and captured it on Ni-NTA agarose beads (Qiagen, Hilden, Germany). We washed the beads three times with binding buffer and analyzed the proteins by western blotting. We pulled down the GST-tagged peptides using Glutathione Sepharose™ 4 Fast Flow (Cytiva, Marlborough, MA, USA) and the biotin-labeled peptides using Streptavidin Agarose Resin (Thermo Fisher Scientific).
# as §2, §3
# [4] = tested on: CABIN1 peptide-CNA interaction; assay: Immunoprecipitation of HA-mCherry-CABIN1 peptide and bound CNA from treated Jurkat T cells; type: cell-based; details: for CABIN1 peptide binding to CNA, effect of p38 inhibitor: 10 μM inhibitor, 16 h, n = 6
# From the text: We lysed the cells in IP150 buffer and immunoprecipitated Flag- and HA-tagged proteins with Anti-FLAG ® M2 Affinity Gel (Sigma–Aldrich) and Pierce™ Anti-HA Agarose (Thermo Fisher Scientific), respectively. […] To quantify the western blot results, we measured the band areas using ImageJ (https://imagej.nih.gov/ij/).
# Values shown are the mean ± standard deviation.
# HIF-1α = HIF-1α stabilization in Jurkat T cells (western blot); type: cell-based; details: DMOG
# Description: Supplementary Fig. 4 No hydroxylation or O -GlcNAcylation occurred in the “PPTP” sequence a Jurkat T cells expressing HA-mCherry -CABIN1 peptide w ere tr eated with DMO G in a dose-dependent manner for 12 h. b Jurkat T cells expressing HA-mCherry-CABIN1 peptide were treated with 500 μ M DMOG in a time-depend ent manner. Each cell lysate was immunoprecipitated with HA antibody and CABIN1 peptide-bound CNA was detected by Western blotting. HIF-1α was det ected as a positive control for DMOG treat ment. c HEK293 T cells were transfected with GST-peptides and GST pull-down assay was conducted.
# Hydroxyproline and O-linked glycosylation of the peptides were detected b y Western blotting.
# as §4
# JNK1 = assay: In vitro kinase assay, JNK1; type: biochemical; details: GST-tagged peptide, 1 h, 30 °C, 50 μM ATP
# Description: (§6) We used the purified GST-tagged peptides for the in vitro kinase assays with activated recombinant kinases obtained from Proqinase GmbH (Freiburg, Germany). We performed the kinase assays in reaction buffer (50 mM HEPES-NaOH, pH 7.5, 3 mM MgCl2, 3 mM MnCl2, 3 μM sodium orthovanadate, 1 mM dithiothreitol, 50 μM unlabeled ATP, 5 μCi ^32P-γ-ATP) for 1 h at 30 °C. We stopped the reaction by adding 5× sample buffer and separated the proteins using SDS-PAGE. The gel was stained with Coomassie Brilliant Blue, dried, and developed on X-ray film.
# (§7) The phosphorylated threonine of the immunoprecipitated peptide with HA antibody was detected with [PXpTP] antibody. b In vitro kinase assays using purified GST-tagged CABIN1 peptide and PKC downstream kinases. c In vitro kinase assays using purified GST-tagged peptides and kinases included in the MAPK family. d Immunoprecipitation assays using Flag-MAPKs and HA-CABIN1 in HEK293T cells. e, f In vitro kinase assays using p38α and substituted CABIN1 peptides. g Jurkat T cells expressing HA-mCherry-tagged CABIN1 peptide were treated with 10 μM p38α inhibitors for 16 h. Immunoprecipitation was performed with HA antibody and detected by western blotting. h Phosphorylated threonine and peptide-bound CNA of g were measured using ImageJ, and the ratio of phosphorylation and calcineurin binding to the CABIN1 peptide was calculated (n = 6). […]
# p38α = assay: In vitro kinase assay, p38α; type: biochemical; details: GST-tagged peptide, 1 h, 30 °C, 50 μM ATP
# Description: as §6, §7
# ERK2 = assay: In vitro kinase assay, ERK2; type: biochemical; details: GST-tagged peptide, 1 h, 30 °C, 50 μM ATP
# Description: as §6, §7
# [5] = tested on: CABIN1 peptide threonine 9 phosphorylation; assay: Phosphorylation of threonine 9 of the expressed peptide in Jurkat T cells (PXpTP western blot, LC-MS/MS); type: cell-based; details: Jurkat; for phosphorylation of the CABIN1 peptide, effect of p38 inhibitor: 10 μM inhibitor, 16 h, n = 6
# From the text: We lysed the cells in IP150 buffer and immunoprecipitated Flag- and HA-tagged proteins with Anti-FLAG ® M2 Affinity Gel (Sigma–Aldrich) and Pierce™ Anti-HA Agarose (Thermo Fisher Scientific), respectively. The composition of the buffer and the subsequent process was described previously. To quantify the western blot results, we measured the band areas using ImageJ (https://imagej.nih.gov/ij/).
# We purified HA-mCherry-tagged CABIN1-L-1-2 peptides expressed in Jurkat T cells by immunoprecipitating 4 mg of lysates with Pierce™ Anti-HA Agarose. We eluted the bead-bound proteins by competition with 1 mg/ml HA peptide. After separation by SDS-PAGE and staining with Coomassie Brilliant Blue, we analyzed the purified proteins by LC-MS/MS (ProteomeTech, Inc., Seoul, Korea).
# as §3
# The phosphorylated threonine of the immunoprecipitated peptide with HA antibody was detected with [PXpTP] antibody. b In vitro kinase assays using purified GST-tagged CABIN1 peptide and PKC downstream kinases. c In vitro kinase assays using purified GST-tagged peptides and kinases included in the MAPK family. d Immunoprecipitation assays using Flag-MAPKs and HA-CABIN1 in HEK293T cells. e, f In vitro kinase assays using p38α and substituted CABIN1 peptides. g Jurkat T cells expressing HA-mCherry-tagged CABIN1 peptide were treated with 10 μM p38α inhibitors for 16 h. Immunoprecipitation was performed with HA antibody and detected by western blotting. h Phosphorylated threonine and peptide-bound CNA of g were measured using ImageJ, and the ratio of phosphorylation and calcineurin binding to the CABIN1 peptide was calculated (n = 6). […] Statistical differences were determined using one-way ANOVA. *p < 0.05, **p < 0.01, ***p < 0.001, CBB Coomassie Brilliant Blue, NC negative control.
# [6] = design: method as in PMID 24319282; details: ref [17]; cited from earlier work
# From the text: FK506 and cyclosporin A, respectively cooperating with FKBP12 or cyclophilin, spatially hinder the substrates’ access to the active site of calcineurin, inhibiting its phosphatase activity[30],[31].
# [7] = tested on: CNA (His-tagged calcineurin catalytic subunit); assay: Surface plasmon resonance (Biacore T200)
# Description: Using a Biacore T200 (Cytiva), we captured the biotin-labeled peptides on the surface of a Series S Sensor Chip SA (Cytiva). […] Each cycle was performed at 25 °C at a flow rate of 30 μl/min with 120 s of contact and 240 s of dissociation. We analyzed the kinetics of interactions using BIAevaluation 3.2 RC1 (Cytiva).
# Biotinylated peptide-bound CNA was detected with His antibody. […] CNA concentrations ranged from 1.25, 2.5, 5, and 10 nM. […] Values shown are the mean ± standard deviation.
# [8] = tested on: CNA (calcineurin catalytic subunit); details: biotinylated peptides, His-CNA
# Description: as §5, §3
# [9] = tested on: NFAT transcriptional activity; assay: NFAT-luc luciferase reporter assay in Jurkat T cells; type: cell-based; details: GST-tagged CABIN1 peptides, PMA and ionomycin, n = 3, T9V vs T6V
# Description: as §1, §3, §4
# [10] = biotinylated peptide on SA chip, CNA 1.25-10 nM, HBS-EP+ pH 7.4, 25 °C, 30 μl/min, mean ± SD
molecule,measurement,setting,value
CABIN1-L-2: CABIN1-L with C-terminal residues removed (FPPEITVTPPT; also: GAL4 DNA-binding domain tag),interaction with / binding affinity to CNA (mammalian two-hybrid),[1],completely lost its binding affinity to CNA
"T6V: CABIN1 peptide with threonine 6 substituted with valine (PEITVVPPTP; also: GST and HA tags, end not given here)",interaction with CNA by immunoprecipitation,[2],abolished the interaction
same,interaction with CNA in vitro (His-pulldown),[3],abolished the interaction
"COC(=O)CNC(=O)C(=O)OC [DMOG, dimethyloxalylglycine]","CABIN1 peptide and CNA interaction, effect of DMOG",[4]; DMOG dose-dependent 12 h or 500 μM time-dependent,did not affect the CABIN1 peptide and CNA interaction
same,HIF-1α stabilization,HIF-1α,stabilized hypoxia-inducible factor-1alpha (HIF-1α)
VIVIT PPTP: chimeric peptide with C-terminal sequence of VIVIT swapped for PPTP of CABIN1 (PVIVITPPTP; also: GAL4 DNA-binding domain tag),"fold enhancement of interaction with CNA, VIVIT PPTP vs. L-1-2 WT (effect of N-terminal PVIVIT)","[1]; CNAβ2, VIVIT PPTP vs. L-1-2 WT",1.93 fold
same,"fold enhancement of interaction with CNA, VIVIT PPTP vs. VIVIT 10-mer (effect of C-terminal PPTP)","[1]; CNAβ2, VIVIT PPTP vs. VIVIT 10-mer",4.76 fold
same,phosphorylation by JNK1,JNK1,phosphorylated
same,phosphorylation by p38α,p38α,phosphorylated
same,phosphorylation by ERK2,ERK2,phosphorylated
CCc1nc(-c2cccc(C)c2)c(-c2ccnc(NC(=O)c3ccccc3)c2)s1 [TAK 715],"CABIN1 peptide binding to CNA, effect of p38 inhibitor",[4],decreasing its binding affinity for CNA
same,"phosphorylation of the CABIN1 peptide, effect of p38 inhibitor",[5],significantly reduced phosphorylation of the CABIN1 peptide
"CABIN1-L: first 13-amino acid segment containing the PxIxIT motif, from CABIN1-14 (FPPEITVTPPTPT; also: GAL4 DNA-binding domain tag)",interaction with / binding affinity to CNA (mammalian two-hybrid),[1],significantly stronger affinity for CNA than CABIN1-14
CABIN1-L-1-3: CABIN1-L-1 with N-terminal residues removed (EITVTPPTP; also: GAL4 DNA-binding domain tag),interaction with / binding affinity to CNA (mammalian two-hybrid),[1],lost its binding affinity
CABIN1-L-1-1: CABIN1-L-1 with N-terminal residues removed (PPEITVTPPTP; also: GAL4 DNA-binding domain tag),interaction with / binding affinity to CNA (mammalian two-hybrid),[1],still bound to CNA
"CCCCCCCCCCCCCC(=O)O[C@@H]1[C@@H](C)[C@@]2(O)[C@@H](C=C(CO)C[C@]3(O)C(=O)C(C)=C[C@@H]23)[C@@H]2C(C)(C)[C@]12OC(C)=O [PMA, phorbol myristate acetate]",CABIN1 peptide phosphorylation after PMA,"[5]; 40 nM PMA, two hours after treatment",CABIN1 peptide phosphorylation increased
cyclosporin A,side effects,[6],"nephrotoxicity, fibrogenesis, neurotoxicity, and diabetes"
Biotin-AAAMAGFPPEITVTPP{pTHR}P [p-CABIN1-L-1],increase in binding affinity by phosphorylation of the 9th threonine,"[7]; SPR, phosphorylated vs unphosphorylated CABIN1 peptide",increased the binding affinity by approximately threefold
same,Ka (association rate),[7]; [10],3393.3±380.8 1/MS
same,Kd (dissociation rate),[7]; [10],5.79e-4±3.2e-5 1/S
same,affinity for CNA (streptavidin pulldown),[8],dramatically increased the affinity for CNA
T9V: CABIN1 peptide with threonine 9 substituted with valine (PEITVTPPVP; not fully specified),interaction with CNA by immunoprecipitation,[2],abolished the interaction in the cellular experiment
same,interaction with CNA in vitro (His-pulldown),[3],not in vitro
same,NFAT transcriptional activity restored by substitution,[9],restored the CABIN1-suppressed transcriptional activity of NFAT more efficiently than the T6V substitution
Cc1ccccc1C(=O)c1ccc(Nc2ccc(Br)cc2N)cc1Cl [EO 1428],"CABIN1 peptide binding to CNA, effect of p38 inhibitor",[4],decreasing its binding affinity for CNA
same,"phosphorylation of the CABIN1 peptide, effect of p38 inhibitor",[5],significantly reduced phosphorylation of the CABIN1 peptide
